In US10196357B2, “Biaryl compositions and methods for modulating a kinase cascade” (Athenex, Inc., priority 2007, dated 2019):

What was measured:
[1] = molecular target: IGF-1R(h) (Homo sapiens, UniProt P08069); experiment: isolated kinase activity, IGF-1R; format: biochemical; conditions: compound @ 10 μM
From the text: (§1) Table 8 illustrates percent activity of isolated kinases in the presence of the AstraZeneca ATP-competitive inhibitor (KX2-328, AZ-28) or KX2-391 relative to control (untreated) isolated kinases.

[2] = molecular target: ZAP-70(h) (Homo sapiens, UniProt P43403); experiment: isolated kinase activity, ZAP-70; format: biochemical; conditions: compound @ 10 μM
From the text: as §1

[3] = molecular target: PDGFRβ(h) (Homo sapiens, UniProt P09619); experiment: isolated kinase activity, PDGFRβ; format: biochemical; conditions: compound @ 10 μM
From the text: as §1

[4] = molecular target: Lck(h) (Homo sapiens, UniProt P06239); experiment: isolated kinase activity, Lck; format: biochemical; conditions: compound @ 10 μM
Lck(h), sequence (P06239 whole entry): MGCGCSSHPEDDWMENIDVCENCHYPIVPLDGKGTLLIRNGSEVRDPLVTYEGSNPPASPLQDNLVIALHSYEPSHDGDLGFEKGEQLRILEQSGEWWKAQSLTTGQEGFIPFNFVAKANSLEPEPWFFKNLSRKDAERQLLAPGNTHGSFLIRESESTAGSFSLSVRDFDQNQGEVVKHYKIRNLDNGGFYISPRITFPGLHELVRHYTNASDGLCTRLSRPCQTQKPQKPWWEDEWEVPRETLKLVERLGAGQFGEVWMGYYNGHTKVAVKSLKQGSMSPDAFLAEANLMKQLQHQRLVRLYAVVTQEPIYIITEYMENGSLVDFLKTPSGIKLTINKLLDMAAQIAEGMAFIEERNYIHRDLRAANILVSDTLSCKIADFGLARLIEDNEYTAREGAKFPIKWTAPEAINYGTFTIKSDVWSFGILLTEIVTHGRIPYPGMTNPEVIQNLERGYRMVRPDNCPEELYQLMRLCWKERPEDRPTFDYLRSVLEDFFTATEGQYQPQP
From the text: as §1

[5] = molecular target: isolated FAK (Homo sapiens, UniProt Q05397); experiment: titration against isolated FAK; format: biochemical; conditions: titration data
isolated FAK, sequence (Q05397 whole entry): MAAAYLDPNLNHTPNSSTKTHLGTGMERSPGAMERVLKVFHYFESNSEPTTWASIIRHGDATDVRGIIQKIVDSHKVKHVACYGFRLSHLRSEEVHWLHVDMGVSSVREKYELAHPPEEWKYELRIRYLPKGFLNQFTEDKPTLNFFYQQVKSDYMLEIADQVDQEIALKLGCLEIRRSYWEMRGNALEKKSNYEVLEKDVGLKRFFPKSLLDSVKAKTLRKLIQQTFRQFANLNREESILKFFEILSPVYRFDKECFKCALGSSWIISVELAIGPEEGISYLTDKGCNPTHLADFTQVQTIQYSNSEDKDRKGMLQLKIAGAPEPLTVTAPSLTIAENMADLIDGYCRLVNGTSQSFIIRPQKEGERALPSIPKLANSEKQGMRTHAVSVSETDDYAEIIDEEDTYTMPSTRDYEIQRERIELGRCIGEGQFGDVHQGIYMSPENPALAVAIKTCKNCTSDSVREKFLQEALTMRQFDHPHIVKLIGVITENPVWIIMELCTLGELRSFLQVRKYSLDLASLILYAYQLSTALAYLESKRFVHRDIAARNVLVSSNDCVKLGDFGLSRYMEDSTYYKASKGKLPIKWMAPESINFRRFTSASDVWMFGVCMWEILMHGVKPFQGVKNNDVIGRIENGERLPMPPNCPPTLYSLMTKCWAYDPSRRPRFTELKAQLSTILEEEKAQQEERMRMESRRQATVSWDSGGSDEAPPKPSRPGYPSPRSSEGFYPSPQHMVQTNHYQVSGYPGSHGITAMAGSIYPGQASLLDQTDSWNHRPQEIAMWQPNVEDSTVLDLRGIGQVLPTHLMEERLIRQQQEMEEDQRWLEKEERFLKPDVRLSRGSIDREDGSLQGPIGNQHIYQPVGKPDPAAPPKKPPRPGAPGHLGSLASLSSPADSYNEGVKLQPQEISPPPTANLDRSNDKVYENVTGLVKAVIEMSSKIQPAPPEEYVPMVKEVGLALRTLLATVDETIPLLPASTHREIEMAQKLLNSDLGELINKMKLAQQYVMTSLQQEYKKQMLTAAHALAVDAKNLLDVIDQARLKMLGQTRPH

[6] = tested on: PI3 kinase; experiment: isolated kinase activity, PI3 kinase; format: biochemical; conditions: compound @ 10 μM
From the text: as §1

[7] = tested on: Caspase-3 cleavage; experiment: induction of apoptosis via Caspase 3 cleavage; format: cell-based; conditions: HT29 and c-Src527F/NIH-3T3 cells
Protocol: (§2) HT29 (colon cancer) and c-Src527F/NIH-3T3 (Src transformed) cell lines were treated with KX2-391 or with AstraZeneca's ATP competitive Src inhibitor AZ28. AZ28 serves as a positive comparator to show what a validated Src inhibitor should do in these assays. After treatment with compound, cells were lysed, subjected to PAGE and probed with a battery of antibodies. […] In addition, off-target protein phosphorylation was also investigated. Further, induction of apoptosis was evaluated via Caspase 3 cleavage. Multiple doses of each compound were tested because the trends in response to increasing drug concentration are the most reliable indicator of activity.
(§3) The same range of multiples of the GI50 for AZ28 in these two cell lines was run as a comparison.
Cleavage of Caspase-3 is a good measure of induction of apoptosis.

[8] = molecular target: IR(h) (Homo sapiens, UniProt P06213); experiment: isolated kinase activity, IR; format: biochemical; conditions: compound @ 10 μM
IR(h), sequence (P06213 28-1382): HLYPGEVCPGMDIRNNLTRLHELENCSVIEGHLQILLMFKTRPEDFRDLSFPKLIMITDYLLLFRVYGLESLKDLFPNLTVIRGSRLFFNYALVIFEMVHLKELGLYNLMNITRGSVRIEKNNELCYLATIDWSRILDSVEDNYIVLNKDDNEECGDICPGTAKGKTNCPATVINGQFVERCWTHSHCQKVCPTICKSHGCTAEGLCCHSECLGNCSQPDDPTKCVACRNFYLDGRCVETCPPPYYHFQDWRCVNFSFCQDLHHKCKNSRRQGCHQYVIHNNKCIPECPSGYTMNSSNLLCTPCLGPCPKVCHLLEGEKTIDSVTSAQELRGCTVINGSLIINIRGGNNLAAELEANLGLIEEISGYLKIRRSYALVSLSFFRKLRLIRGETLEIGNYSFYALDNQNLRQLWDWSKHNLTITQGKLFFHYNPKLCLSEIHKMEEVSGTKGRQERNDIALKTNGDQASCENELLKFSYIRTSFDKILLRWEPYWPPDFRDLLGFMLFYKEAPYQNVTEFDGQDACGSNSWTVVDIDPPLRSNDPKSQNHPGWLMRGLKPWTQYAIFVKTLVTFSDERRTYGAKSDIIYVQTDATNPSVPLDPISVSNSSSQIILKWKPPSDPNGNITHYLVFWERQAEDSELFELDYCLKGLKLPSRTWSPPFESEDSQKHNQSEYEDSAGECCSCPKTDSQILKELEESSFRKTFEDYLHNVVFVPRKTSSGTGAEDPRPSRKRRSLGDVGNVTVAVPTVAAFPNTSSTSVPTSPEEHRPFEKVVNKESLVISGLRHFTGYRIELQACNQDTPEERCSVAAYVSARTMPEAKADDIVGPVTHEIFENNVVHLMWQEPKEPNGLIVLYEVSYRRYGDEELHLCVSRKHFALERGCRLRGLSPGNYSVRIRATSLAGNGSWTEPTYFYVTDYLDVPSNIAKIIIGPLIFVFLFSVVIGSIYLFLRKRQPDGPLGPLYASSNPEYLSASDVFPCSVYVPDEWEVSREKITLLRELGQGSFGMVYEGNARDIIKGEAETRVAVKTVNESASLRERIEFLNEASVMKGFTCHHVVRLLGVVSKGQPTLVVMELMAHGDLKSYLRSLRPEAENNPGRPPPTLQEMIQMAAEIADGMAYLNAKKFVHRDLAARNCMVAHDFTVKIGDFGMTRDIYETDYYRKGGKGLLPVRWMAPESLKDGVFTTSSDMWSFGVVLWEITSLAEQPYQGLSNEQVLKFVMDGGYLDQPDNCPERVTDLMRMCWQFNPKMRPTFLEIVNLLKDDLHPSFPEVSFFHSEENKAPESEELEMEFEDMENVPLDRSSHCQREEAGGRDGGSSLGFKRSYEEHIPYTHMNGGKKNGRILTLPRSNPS
From the text: as §1

[9] = molecular target: MAPK2(h) (Homo sapiens, UniProt P28482); experiment: isolated kinase activity, MAPK2; format: biochemical; conditions: compound @ 10 μM
MAPK2(h), sequence (P28482 whole entry): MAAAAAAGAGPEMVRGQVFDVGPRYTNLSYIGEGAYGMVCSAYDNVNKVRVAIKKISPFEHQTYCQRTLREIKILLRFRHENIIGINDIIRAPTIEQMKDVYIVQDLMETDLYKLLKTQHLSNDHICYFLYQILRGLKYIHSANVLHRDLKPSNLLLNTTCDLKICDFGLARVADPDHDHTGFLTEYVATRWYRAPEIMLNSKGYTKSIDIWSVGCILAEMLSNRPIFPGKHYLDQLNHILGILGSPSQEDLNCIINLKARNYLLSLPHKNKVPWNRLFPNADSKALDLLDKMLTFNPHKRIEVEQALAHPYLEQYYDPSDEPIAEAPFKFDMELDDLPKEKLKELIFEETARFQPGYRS
From the text: as §1

[10] = tested on: FAK Tyr 925; experiment: intracellular phosphorylation, FAK Tyr 925; format: cell-based; conditions: whole cells
Protocol: as §2, §3
KX2-391 and AZ28 inhibited Src transphosphorylation.

[11] = molecular target: Abl(h) (Homo sapiens, UniProt P00519); experiment: isolated kinase activity, Abl; format: biochemical; conditions: compound @ 10 μM
Abl(h), sequence (P00519 whole entry): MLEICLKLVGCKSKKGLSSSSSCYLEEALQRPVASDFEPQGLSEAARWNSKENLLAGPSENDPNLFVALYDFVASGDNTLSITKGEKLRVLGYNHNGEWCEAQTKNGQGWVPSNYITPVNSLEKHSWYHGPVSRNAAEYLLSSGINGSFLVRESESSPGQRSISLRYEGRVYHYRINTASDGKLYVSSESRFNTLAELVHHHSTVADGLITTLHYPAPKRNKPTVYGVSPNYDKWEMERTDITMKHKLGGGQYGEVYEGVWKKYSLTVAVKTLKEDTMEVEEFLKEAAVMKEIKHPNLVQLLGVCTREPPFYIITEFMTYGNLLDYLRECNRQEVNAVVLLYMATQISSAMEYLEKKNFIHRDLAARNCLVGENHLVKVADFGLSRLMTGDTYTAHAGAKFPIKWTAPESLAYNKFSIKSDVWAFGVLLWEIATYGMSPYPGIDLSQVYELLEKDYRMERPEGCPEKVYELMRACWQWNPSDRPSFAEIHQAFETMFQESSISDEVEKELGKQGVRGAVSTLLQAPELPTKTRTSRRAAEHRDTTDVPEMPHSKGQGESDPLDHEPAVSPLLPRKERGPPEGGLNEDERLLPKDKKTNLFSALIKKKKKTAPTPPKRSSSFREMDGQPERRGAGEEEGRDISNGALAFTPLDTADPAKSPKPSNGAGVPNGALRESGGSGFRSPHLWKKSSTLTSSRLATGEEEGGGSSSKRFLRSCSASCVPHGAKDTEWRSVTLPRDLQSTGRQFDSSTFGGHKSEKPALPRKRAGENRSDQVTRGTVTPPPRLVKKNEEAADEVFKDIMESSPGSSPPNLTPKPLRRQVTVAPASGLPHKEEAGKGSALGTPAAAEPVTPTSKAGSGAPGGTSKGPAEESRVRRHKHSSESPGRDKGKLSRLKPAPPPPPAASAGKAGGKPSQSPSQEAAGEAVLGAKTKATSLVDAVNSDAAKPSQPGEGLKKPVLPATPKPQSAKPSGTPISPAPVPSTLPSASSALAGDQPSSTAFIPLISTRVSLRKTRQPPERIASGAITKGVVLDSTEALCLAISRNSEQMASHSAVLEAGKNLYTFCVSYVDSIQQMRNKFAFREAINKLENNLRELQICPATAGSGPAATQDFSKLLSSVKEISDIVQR
From the text: as §1

[12] = molecular target: Lyn(h) (Homo sapiens, UniProt P07948); experiment: isolated kinase activity, Lyn; format: biochemical; conditions: compound @ 10 μM
Lyn(h), sequence (P07948 whole entry): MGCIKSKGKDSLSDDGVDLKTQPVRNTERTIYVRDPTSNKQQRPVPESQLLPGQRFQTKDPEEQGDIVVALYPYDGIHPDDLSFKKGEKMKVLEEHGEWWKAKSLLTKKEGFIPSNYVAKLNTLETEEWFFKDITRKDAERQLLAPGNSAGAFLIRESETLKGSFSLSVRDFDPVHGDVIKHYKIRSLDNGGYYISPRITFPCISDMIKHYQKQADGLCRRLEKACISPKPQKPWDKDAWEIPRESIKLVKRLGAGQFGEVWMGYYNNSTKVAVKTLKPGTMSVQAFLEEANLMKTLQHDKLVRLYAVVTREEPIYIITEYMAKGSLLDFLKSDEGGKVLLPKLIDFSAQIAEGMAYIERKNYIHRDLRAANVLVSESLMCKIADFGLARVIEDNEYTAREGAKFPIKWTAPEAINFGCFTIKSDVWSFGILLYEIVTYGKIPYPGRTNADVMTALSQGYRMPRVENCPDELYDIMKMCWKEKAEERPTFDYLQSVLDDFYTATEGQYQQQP
From the text: as §1

[13] = molecular target: Yes(h) (Homo sapiens, UniProt P07947); experiment: isolated kinase activity, Yes; format: biochemical; conditions: compound @ 10 μM
From the text: as §1

[14] = tested on: LN-18; experiment: brain tumor cell growth inhibition, LN-18; format: cell-based, Human; conditions: LN-18, glioblastoma; glioma; read-out: IC50 (title: GI50)
[15] = tested on: CCRF-HSB-2 (Adult lymphoblastic leukemia); experiment: growth inhibition, CCRF-HSB-2; format: cell-based, Human; conditions: read-out: GI50
[16] = tested on: JAK2 Y1007/1008; experiment: whole cell phosphorylation, JAK2; format: cell-based; conditions: whole cells
[17] = tested on: SK-N-MC; experiment: brain tumor cell growth inhibition, SK-N-MC; format: cell-based, Human; conditions: neuroepithelioma, read-out: IC50 (title: GI50)
[18] = tested on: Ba/F3 + WT BCR-Abl; experiment: MTT growth inhibition, Ba/F3 + WT BCR-Abl; format: cell-based; conditions: 96 hrs
From the text: Cultures of Ba/F3 cells were also transfected to express wild-type (WT) Bcr-Abl, E255K mutation of Bcr-Abl, or T315I mutation of Bcr-Abl and cultured in 96-well plates in complete media without IL-3. The Ba/F3 cell line is rendered Gleevec resistant when the mutation in the Bcr/Abl tyrosine kinase […] is present. […] All assays are in triplicate.

[19] = tested on: Jurkat (Adult T cell leukemia); experiment: growth inhibition, Jurkat; format: cell-based, Human
[20] = tested on: Bcr/Abl &245; experiment: whole cell phosphorylation, Bcr/Abl; format: cell-based; conditions: whole cells
[21] = tested on: 786-O; experiment: renal tumor cell growth inhibition, 786-O; format: cell-based, Human; conditions: renal cell adenocarcinoma
Protocol: (§4) These GI50s were determined using standard tumor growth inhibition assays, similar to those described in detail in this Example 7.

[22] = tested on: HCT116; experiment: MTT growth inhibition, Dasatinib-resistant HCT116; format: cell-based, human; conditions: HCT116, 8.0×10^3 cells/well, […] FBS, 78 Hr
Protocol: Cell proliferation/growth inhibition was assessed using MTT colorimetric assay.
On Day 3, 10 μL MTT (5 mg/mL) was added to each well. Cells were then incubated in the presence of MTT for 4 hours at 37° C., appropriate CO2 conditions. After this incubation period, 90 μL 10% SDS(+HCl) was added to each well to lyse cells and solubilize formazan. Cells were then incubated overnight at 37° C., appropriate CO2 conditions.
The OD570 was measured using microplate reader. Growth inhibition curves and EC50/IC50 was determined using GraphPad Prism 4 statistical software.

[23] = tested on: SK-N-FI; experiment: brain tumor cell growth inhibition, SK-N-FI; format: cell-based, Human; conditions: neuroblastoma, read-out: IC50 (title: GI50)
[24] = tested on: 769-P; experiment: renal tumor cell growth inhibition, 769-P; format: cell-based, Human; conditions: renal cell adenocarcinoma
Protocol: as §4

[25] = tested on: ACHN; experiment: renal tumor cell growth inhibition, ACHN; format: cell-based, Human; conditions: renal cell adenocarcinoma
Protocol: as §4

[26] = tested on: Ba/F3 (IL-3 induced); experiment: MTT growth inhibition, Ba/F3 + IL-3; format: cell-based; conditions: 96 hrs, read-out: GI50
[27] = tested on: protein tyrosine kinases (PTKs); experiment: selectivity for protein tyrosine kinases in whole cells; format: cell-based; conditions: as compared to Dasatinib
From the text: The compounds of the invention are selective for protein tyrosine kinases (PTKs). […] SYF cells are mouse fibroblasts that lack the Src kinase family members Src, Yes and Fyn.

[28] = tested on: Lyn Y416; experiment: whole cell phosphorylation, Lyn; format: cell-based; conditions: whole cells
[29] = tested on: PC3-MM2 prostate cancer cells; experiment: orthotopic prostate model for in vivo metastases; parameters: species or system Nu/Nu mice
Protocol: Nu/Nu mice (8-12 weeks of age) were injected with PC3-MM2 prostate cancer cells into the prostate as described previously in Pettaway et al., Clin Cancer Res 1996, 2:1627-1636, hereby incorporated herein by reference in its entirety. […] All mice were sacrificed by cervical dislocation on about day 42. Tumor volume (measured by caliper), weight, and incidence of regional (celiac or para-aortal) lymph node metastases were recorded.

O=C(Cc1ccc(-c2ccc(OCCN3CCOCC3)cc2)cn1)NCc1ccccc1 [KX2-391]
percent activity of isolated kinase relative to control [1]: 101%
percent activity of isolated kinase relative to control [2]: 108%
percent activity of isolated kinase relative to control [3]: 110%
percent activity of isolated kinase relative to control [4]: 109%
IC50 [5]: > 48000 nM
percent activity of isolated kinase relative to control [6]: 100%
induction of apoptosis (Caspase-3 cleavage) [7]: very effective in inducing apoptosis
percent activity of isolated kinase relative to control [8]: 112%
percent activity of isolated kinase relative to control [9]: 112%
phosphorylation of FAK Tyr 925 (Src transphosphorylation) [10]: inhibited
percent activity of isolated kinase relative to control [11]: 120%
percent activity of isolated kinase relative to control [12]: 113%
percent activity of isolated kinase relative to control [13]: 92%

O=C(Cc1ccc(-c2ccc(OCCN3CCOCC3)cc2)cn1)NCc1ccccc1 [KXO1]
IC50 [14]: 14.5 nM
GI50 [15]: 12 nM
phosphorylation of JAK2 Y1007/1008 [16]: not inhibited
IC50 [17]: 5.8 nM
GI50 [18]: 85 nM
GI50 [19]: 10 nM
phosphorylation of Bcr/Abl &245 [20]: inhibited less potently
GI50 [21]: 378 nM
IC50 [22]: 31 nM
IC80 [22]: 106 nM
IC90 [22]: 195 nM
IC50 [23]: 1.7 nM
GI50 [24]: 45 nM
GI50 [25]: 33.2 nM
GI50 [26]: 3.5 nM
PTK selectivity in whole cells [27]: very high PTK selectivity
phosphorylation of Lyn Y416 [28]: inhibited less potently
LN metastasis ([29]; 5.0 mg/kg/day oral gavage): 4/5
Tumor incidence ([29]; 5.0 mg/kg/day oral gavage): 5/6
Tumor weight (g) Median ([29]; 5.0 mg/kg/day oral gavage): 1.16 g
LN metastasis ([29]; 10.0 mg/kg/day oral gavage): 2/5
Tumor incidence ([29]; 10.0 mg/kg/day oral gavage): 5/6
Tumor weight (g) Median ([29]; 10.0 mg/kg/day oral gavage): 0.35 g
